# Read-outs that look alike come from different tables or passages of the source.
# What was measured:
# [1] = test system: three melanoma cell lines and four human prostate cancer cell lines; assay: Antiproliferative activity, average over melanoma and prostate cancer cell lines; assay type: cell-based; details: for IC50: Homo sapiens, discussion of Tables 8-10
# [2] = test system: pAKT/tAKT and pERK in A375RF21 cells; assay: Western blot analysis in A375RF21; assay type: cell-based, human
# Procedure: (§1) At the indicated time treatment, human melanoma A375RF21, MDA-MB-435 or WM164 cells were collected to investigate relevant cascade protein or apoptosis markers by western blots. Total protein was extracted by lysing cells with RIPA buffer (Sigma-Aldrich, St. Louis, Mo.) containing phosphatase-proteinase inhibitor cocktail (Sigma-Aldrich, St. Louis, Mo.). General protein concentration was then determined by BCA method using kit (Sigma-Aldrich, St. Louis, Mo.). The cell lysates were diluted to equal general protein concentration using Laemmli loading buffer (Bio-Rad, Hercules, Calif.) and boiled for 5 min to denature the protein. Then group samples containing 10 μg general proteins were loaded to each well of 4-15% Tris-HCl pre-cast polyacrylamide gel (Bio-Rad, Hercules, Calif.) for electrophoresis and subsequently transferred to 0.2 μm nitrocellulose membrane (Bio-Rad, Hercules, Calif.). […] Target proteins were detected by incubating with 1× LumiGLO® reagent (Cell Signaling, #7003) for one minute and exposed to x-ray film. The films were scanned with grey scale and lane intensities were quantified with the ImageJ software (NIH, Bethesda, Md., USA).
# [3] = test system: pAKT/tAKT in MDA-MB-435 cells; assay: Western blot analysis in MDA-MB-435; assay type: cell-based, human; details: MDA-MB-435, 48 h
# Procedure: as §1
# [4] = test system: A375 human melanoma xenograft; details: 12da 25 mg/kg; Wang Z et al., Pharm. Res. 29(11); cited from earlier work
# [5] = test system: A375RF21 cells; assay: Cell cycle analysis (flow cytometry) in A375RF21; assay type: cell-based, human; details: for G2/M arrest: A375RF21, 20 nM
# Procedure: (§2) Flow cytometry analysis was performed as described before (Wang Z, Chen J, Wang J, et al. “Novel tubulin polymerization inhibitors overcome multidrug resistance and reduce melanoma lung metastasis.” Pharm. Res. (2012) 29: 3040-3052). To determine cell cycle distributions in the G2 and M phases (FIG. 23), cells were harvested with trypsin, stained using antiphospho-histone H3-AlexaFluor® 488 antibody on ice for one hour in the dark, followed by stained using PI/RNase solution for 30 minutes at room temperature in the dark per the manufacturer's instructions (#FCCH025103, EMD Millipore Corporation, Ballerica, Mass.). Data were further processed and graphs were prepared using the Modfit 2.0 program (Verity Software House, Topsham, Me.).
# [6] = test system: A375RF21; assay: In vitro combination assay (combination index) in A375RF21; assay type: cell-based, human; details: combination with vemurafenib
# Excerpt: (§3) Cell proliferation viability was investigated using MTS or SRB assay as described previously. An in vitro study of the combination of vemurafenib and the tubulin inhibitors was designed and conducted using CalcuSyn software (Biosoft, Ferguson, Mo.) with five duplicates of each set of treatment. Drug concentrations were selected based on the IC50 value of each drug tested from a pilot study.
# [7] = test system: NCl/ADR-RES; assay: In vitro growth inhibition, NCI/ADR-RES; assay type: cell-based; details: Homo sapiens, Table 9, read-out: IC50 ± SEM (nM) NCl/ADR-RES
# [8] = test system: pAKT/tAKT in WM164 cells; assay: Western blot analysis in WM164; assay type: cell-based, human; details: WM164, 48 h
# Procedure: as §1
# [9] = test system: OVCAR-8; assay: In vitro growth inhibition, OVCAR-8; assay type: cell-based; details: Homo sapiens, OVCAR-8; Table 9; read-out: IC50 ± SEM (nM) OVCAR-8
# [10] = test system: melanoma nodules in the lungs; assay: Melanoma lung metastasis model in mice; assay type: in vivo, mouse; details: i.p. injection 5 days per week for 2 weeks (n=8 per group)
# Excerpt: Panel A: Representative photos of lungs with melanoma nodules (black dots, n=8 per group). Treatment was i.p. injection 5 days per week for 2 weeks. Panel B: Number of melanoma nodules on each lung. Points: individual nodule number; long line in the middle: mean; short line on the top and bottom: 95% confidence intervals ** and ##: p<0.01. Panel C: Mouse body weight changes during the experiment. Points: means; bars: SD. Control: vehicle solution only.
# [11] = test system: B16-F1 melanoma cells; assay: B16-F1 melanoma colony formation assay in soft agar; assay type: cell-based, mouse; details: 14 days
# Procedure: B16-F1 melanoma cells were plated at a colony-forming density (2000 cells per well on six-well plates) on top of 0.8% base agar. Cells were grown in 0.4% agar together with DMEM medium supplemented with fetal bovine serum and an antibiotic-antimycotic solution at 37° C. in an atmosphere of 95% air and 5% CO2. […] Compounds were added to the media from 1 mM DMSO stock solutions, and a corresponding dilution of DMSO was used as control. Cells were grown for 14 days. Plates were photographed, and the number of colonies was measured by Artek 880 Automated Colony Counter (Artek Systems Corporation, Farmingdale, N.Y.).
# [12] = biological target: T1, Bovine brain tubulin (Bos taurus, UniProt P81947+Q6B856); assay: In vitro microtubule polymerization assay (Example 6); assay type: biochemical; details: absorbance at 340 nm, 15 min; for inhibition of tubulin polymerization: 10 μM
# T1 construct: purchased Cytoskeleton, Denver, Colo; host or cells: brain tissue
# T1 sequence (P81947 whole entry): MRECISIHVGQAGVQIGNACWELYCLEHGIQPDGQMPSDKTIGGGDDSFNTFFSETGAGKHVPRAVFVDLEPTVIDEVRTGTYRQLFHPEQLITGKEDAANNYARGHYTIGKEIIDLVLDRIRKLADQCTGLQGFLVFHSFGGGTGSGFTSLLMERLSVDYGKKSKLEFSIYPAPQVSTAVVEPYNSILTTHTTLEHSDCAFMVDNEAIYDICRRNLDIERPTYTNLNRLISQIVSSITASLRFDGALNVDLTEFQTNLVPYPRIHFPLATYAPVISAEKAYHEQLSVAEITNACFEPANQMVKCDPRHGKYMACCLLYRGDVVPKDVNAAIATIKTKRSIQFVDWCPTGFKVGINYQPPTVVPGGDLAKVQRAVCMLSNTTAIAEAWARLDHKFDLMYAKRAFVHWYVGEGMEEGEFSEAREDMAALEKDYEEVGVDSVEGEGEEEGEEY
# T1 sequence (Q6B856 whole entry): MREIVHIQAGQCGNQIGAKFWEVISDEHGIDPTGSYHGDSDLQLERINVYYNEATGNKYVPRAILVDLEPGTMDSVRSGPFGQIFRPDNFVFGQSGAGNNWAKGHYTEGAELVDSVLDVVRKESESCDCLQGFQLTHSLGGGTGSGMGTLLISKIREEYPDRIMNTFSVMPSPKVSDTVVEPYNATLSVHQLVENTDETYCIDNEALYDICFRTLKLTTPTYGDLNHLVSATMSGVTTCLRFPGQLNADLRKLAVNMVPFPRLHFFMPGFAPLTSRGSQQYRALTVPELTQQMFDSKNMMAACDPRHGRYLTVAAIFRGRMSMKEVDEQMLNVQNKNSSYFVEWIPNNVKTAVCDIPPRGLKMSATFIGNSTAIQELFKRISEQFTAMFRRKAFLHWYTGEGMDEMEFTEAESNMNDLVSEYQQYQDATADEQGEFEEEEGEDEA
# Procedure: The absorbance at 340 nm was monitored every 1 min for 15 min by the SYNERGY 4 Microplate Reader (Bio-Tek Instruments, Winooski, Vt.). The spectrophotometer was set at 37° C. for tubulin polymerization.
# [13] = test system: A375 human melanoma xenograft; assay: A375 human melanoma xenograft in SHO nude mice; assay type: in vivo; details: 12fb 25 mg/kg, 31 days
# Procedure: SHO nude mice bearing an A375 human melanoma xenograft (n=5 per group). Each mouse received 2.5×10^6 cells by s.c. injection into the flank. 30 μL i.p. daily treatments were started when the tumor size reached ˜150 mm^3. Control, vehicle solution only; points, means; bars, SD.
# In vivo evaluation of efficacy. […] The cell suspension (100 μL) was injected subcutaneously in the right dorsal flank of each mouse. When tumor size reached about 100-150 mm^3, about 7 days after cell inoculation, all mice bearing tumors were divided into control and treatment groups based on tumor size (n=5 per group). Each group had similar average tumor size. Mice in control groups (negative control) were injected intraperitoneally with 50 μL vehicle solution only or DTIC at 60 mg/kg (positive control) once daily. Tumor volume was measured every 2 days with a traceable electronic digital caliper (Fisher Scientific, Inc., Pittsburgh, Pa.) and calculated using the formula a×b^2×0.5, where a and b represented the larger and smaller diameters, respectively. Tumor volume was expressed in cubic millimeters. Data were expressed as mean±SE for each group and plotted as a function of time. […] Animal activity and average body weight of each group were monitored during the entire experiment period to assess compound toxicity. […]
# [14] = test system: PC-3; assay: Apoptosis (cytoplasmic DNA-histone complex formation) in PC-3; assay type: cell-based, human; details: PC-3, 0.8 to 600 nmol/L, 24 h
# [15] = test system: A375RF21 cells; assay: Apoptosis detection (Annexin V-FITC / propidium iodide); details: A375RF21, 48 h, Annexin V / propidium iodide flow cytometry
# [16] = test system: PC-3 tumors; assay: PC-3 xenograft in nude mice; details: day 1 and 9, end point day 19
# [17] = test system: PC-3/TxR tumors; details: PC-3/TxR xenograft, day 1 and 9; for Tumor size, End: end point day 19
# [18] = test system: PC-3/TxR; assay: Apoptosis (cytoplasmic DNA-histone complex formation) in PC-3/TxR; assay type: cell-based, human; details: 0.8 to 600 nmol/L, 24 h
# [19] = test system: Du 145; assay: Cell culture cytotoxicity (SRB) assay, Du 145; details: read-out: inhibitory effects DU145; Table 10B, anti-proliferation
# [20] = test system: Bovine brain tubulin; assay: HTS-tubulin polymerization assay (Example 1); details: 20 μM, purified-protein assay
# [21] = test system: A375 cells; assay: Cell cycle analysis (flow cytometry) in A375; assay type: cell-based, human
# Procedure: as §2
# [22] = test system: A375 cells; assay: Cell proliferation MTS assay, parental A375; details: Homo sapiens, A-375, read-out: IC50 for proliferation inhibition
# Excerpt: as §3
# [23] = test system: A375RF21 cells; assay: Cell proliferation MTS assay, vemurafenib-resistant A375RF21
# Excerpt: as §3
# [24] = test system: A375; assay: Cell culture cytotoxicity (SRB) assay, A375; assay type: cell-based, human; details: Table 9, SRB, 48 h; read-out: IC50 ± SEM (nM) A375
smiles,measurement,setting,value
"O=C(c1ccc(F)cc1)c1c[nH]c(-c2ccccc2C(F)(F)F)n1 [12ib, (4-fluorophenyl)(2-(2-(trifluoromethyl)phenyl)-1H-imidazol-4-yl)methanone]",IC50,[1],1 to 50 µM
"COc1cc(C(=O)c2c[nH]c(-c3ccc(C)cc3)n2)cc(OC)c1OC [12da, (2-(p-tolyl)-1H-imidazol-4-yl)(3,4,5-trimethoxyphenyl)methanone]",effect on pERK or total ERK level,"[2]; A375RF21, 48 h incubation",no obvious effect
same,pAKT/tAKT inhibition,[3],strong dose-dependent pAKT/tAKT inhibition effects
same,suppression of parental A375 melanoma tumor growth in vivo,[4],effective
same,G2/M arrest,[5]; 24 h,induced G2/M arrest
same,"calculated CI values, all concentrations tested",[6],0.53-0.70
same,IC50,[7],19 nM
same,pAKT/tAKT inhibition,[8],strong dose-dependent pAKT/tAKT inhibition effects
same,IC50,[9],47 nM
same,inhibition of metastasis of melanoma to the lungs,[10],inhibition
same,inhibition of colony formation,[11]; 20 nM,effectively inhibited
same,inhibition of tubulin polymerization,[12],inhibited tubulin polymerization
"COc1ccc(-c2nc(C(=O)c3ccc(F)cc3)c[nH]2)cc1 [12cb, (4-fluorophenyl)(2-(4-methoxyphenyl)-1H-imidazol-4-yl)methanone]",inhibition of metastasis of melanoma to the lungs,[10],inhibition
same,inhibition of colony formation,[11]; 20 nM,effectively inhibited
same,inhibition of tubulin polymerization,[12],inhibited tubulin polymerization
same,inhibition at 10 µM,[12],~80%
"O=C(c1ccc(F)cc1)c1c[nH]c(-c2ccc(Cl)cc2)n1 [12fb, (2-(4-chlorophenyl)-1H-imidazol-4-yl)(4-fluorophenyl)methanone]",tolerability,[13],well tolerated dose
same,inhibition of metastasis of melanoma to the lungs,[10],inhibition
same,inhibition of colony formation,[11]; 100 nM,effective inhibition
"CC(=O)O[C@@]12CO[C@@H]1C[C@H](O)[C@@]1(C)C(=O)[C@H](O)C3=C(C)[C@@H](OC(=O)[C@H](O)[C@@H](NC(=O)OC(C)(C)C)c4ccccc4)C[C@@](O)([C@@H](OC(=O)c4ccccc4)[C@H]21)C3(C)C [Docetaxel, reference compound]",G2/M arrest,[5]; 24 h,induced G2/M arrest
same,induction of cell apoptosis (DNA-histone complexes),[14],highly potent to induce apoptosis
same,"cell apoptosis or death (sum of Q1, Q2 and Q4)",[15],6.4±3.0%
same,"Body weight, End",[16]; IV 10 mpk,24 ± 2 g
same,"Body weight, End",[16]; IV 20 mpk,24 ± 3 g
same,"Tumor size, End",[17]; IV 10 mpk,1774 ± 183 mm^3
same,"Tumor size, Start",[17]; IV 10 mpk,143 ± 20 mm^3
same,"Tumor size, End",[17]; IV 20 mpk,999 ± 905 mm^3
same,"Tumor size, Start",[17]; IV 20 mpk,170 ± 86 mm^3
same,induction of cell apoptosis (DNA-histone complexes),[18],weaker
"COc1cc(C(=O)c2c[nH]c(-c3cc(OC)c(OC)c(OC)c3)n2)cc(OC)c1OC [12ea, (3,4,5-trimethoxyphenyl)(2-(3,4,5-trimethoxyphenyl)-1H-imidazol-4-yl)methanone]",IC50,[1],1 to 50 µM
"Cc1ccc(-c2nc(C(=O)c3ccc(F)cc3)c[nH]2)cc1 [12db, (4-fluorophenyl)(2-(p-tolyl)-1H-imidazol-4-yl)methanone]",inhibition of tubulin polymerization,[12],inhibited tubulin polymerization
COc1ccc(C(=O)c2nc(-c3cc(OC)c(OC)c(OC)c3)c[nH]2)cc1 [70y],IC50,[19],> 50 µM
CCCS(=O)(=O)Nc1ccc(F)c(C(=O)c2c[nH]c3ncc(-c4ccc(Cl)cc4)cc23)c1F [Vemurafenib],level of pAKT relative to tAKT,"[2]; A375RF21, 48 h, quantified lane density",70%
same,G0/G1 arrest,"[5]; A375RF21, 1 μM, 24 h",could not arrest
same,concentration needed to produce G0/G1 cell cycle arrest,"[5]; resistant A375RF21, single agent",≥ 30 µM
same,"cell apoptosis or death (sum of Q1, Q2 and Q4)",[15],11.9±3.5%
same,effect on tubulin polymerization,[20],did not significantly influence tubulin polymerization
same,effect on tubulin polymerization,[20]; listed as vemurafenib,did not have any effect on tubulin polymerization
same,G0/G1 arrest,"[21]; A375, 1 μM, 24 h",effectively arrested
same,concentration needed to produce G0/G1 cell cycle arrest,"[21]; parental A375, single agent",less than 1 μM
same,IC50,[22],0.57 ± 0.03 µM
same,IC50,"[23]; Homo sapiens, read-out: IC50 for proliferation inhibition",28.9 ± 0.6 µM
same,fold increase of IC50 in A375RF21 versus parental A375,[23]; MTS assay,over 50 fold
COc1cc(C(=O)c2c[nH]c(-c3ccc(O)cc3)n2)cc(O)c1OC [12kc],IC50,[24],10000 nM
"O=C(c1ccc(F)cc1)c1c[nH]c(-c2ccc(OCc3ccccc3)cc2)n1 [12jb, (2-(4-(benzyloxy)phenyl)-1H-imidazol-4-yl)(4-fluorophenyl)methanone]",fold increase in activity compared with the para-hydroxy compound 12kb,[1]; discussion of Table 9,440 fold
